{"source": "PubChem BioAssay AID2202554", "about": "(NIEHS Division of Translational Toxicology (DTT))", "note": "Records with an inconclusive call do not appear. Calls of active or inactive are those of the source. No rule for the calls is given here.", "data": [{"tested_on": "S. typhimurium/E. coli reverse mutation, colony counts", "assay": "Bacterial reverse mutation test (aka Ames test) summary data;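 also: His-minus Salmonella and trp-minus E. coli WP2 uvrA pKM101 with or without liver S9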", "text": "The Ames test uses bacteria cultures to determine whether a substance causes mutations. Because there is a significant overlap between substances that are mutagens and those that are carcinogens, a quick and inexpensive mutagenicity test is useful as an initial screening for possible carcinogens.\nThe Ames test relies on specific strains of S. typhimurium, namely: TA97, TA98, TA100, TA102, TA104, TA1535, TA1537, and TA1538. In addition to the S. typhimurium strains, the test may also use the E. coli strain WP2 uvrA pKM101.\nEach of the bacterial strains has a mutation that prevents it from making an amino acid (a protein building block) required for normal cell growth. The S. typhimurium strains are unable to manufacture histidine; the E. coli strain cannot manufacture tryptophan. The tester strains will not be able to grow without amino acid supplementation, unless the mutated gene is changed back to the correct DNA sequence (reversion mutation). Being exposed to a mutagenic chemical increases the chance that the mutant gene will be restored to the correct sequence, which allows the bacteria to grow and form colonies. Each substance under study is tested in a variety of bacterial strains with different types of altered DNA sequences in order to provide a comprehensive assessment of the mutagenic potential of the substance.\nSome non-mutagenic substances are converted to mutagenic substances when metabolized by the liver; in contrast, some substances that are mutagenic in their natural state are converted to non-mutagens by the liver. All substances are tested in their natural state, as well as in the presence of liver enzymes that can produce this metabolic conversion of the test substance. Extracts of rat, hamster, or mouse liver enzymes (S9 mix) are used for this purpose.\nD. Preparing the Cultures\nMultiple sets of cultures are prepared using a range of doses and different amounts of liver enzymes for each bacterial strain. Each culture is prepared in a test tube containing a suspension of one bacterial strain and either an S9 mix or plain buffer solution. Then the test substance is added. Negative control cultures are established using the same ingredients, but without the test substance. Positive control cultures are established using known mutagens active in particular bacterial strains and metabolic conditions (for example, with or without S9). Once prepared, each culture is incubated for 20 minutes at 37° C. Agar is then added to the cultures, and the contents of each tube are poured onto the surface of a Petri dish that was prepared with standard bacterial culture medium. The plates are then incubated, usually for two days.\nDepending on the substance to be tested, the exposure and incubation processes may be modified. These variations include:\n- Elimination of the 20-minute incubation period in a test tube prior to plating (this method is referred to as the standard plate incorporation method)\n- Enzymatic reduction of azo and diazo substances (this process occurs in the intestine or liver of animals) using a chemical called flavin mononucleotide (FMN) or intestinal bacterial preparations from rats\n- Testing in sealed chambers such as desiccators for volatile and gaseous chemicals.\nTo validate the test, a trained investigator compares the number of colonies on the chemical-treated plates to the number of colonies on the negative control plates. If the substance under test is mutagenic, the chemical-treated plates will have a much greater number of colonies than the negative control plates.\n- A positive response is a reproducible, dose-related increase in mutant colonies in any single strain, with or without the addition of S9 metabolic enzymes. While there is no minimum percentage of increase required for a result to be considered positive, a twofold increase in mutant colonies in a treated plate is usually considered to be a positive (mutagenic) response.\n[…]", "values": [{"smiles": "CN(C)CCC(c1ccccc1)c1ccccn1", "note": "(centres undefined)", "outcome": "inactive; negative"}, {"smiles": "O=C(O)c1cc(Cl)cc(Cl)c1", "outcome": "inactive; negative"}, {"smiles": "O=C1CCCO1", "outcome": "inactive; negative"}, {"smiles": "CC=Cc1ccc(O)c(OC)c1", "outcome": "inactive; negative"}, {"smiles": "NS(=O)(=O)c1cc2c(cc1Cl)NC=NS2(=O)=O", "outcome": "inactive; negative"}, {"smiles": "O=c1c(O)c(-c2ccc(O)c(O)c2)oc2cc(O)cc(O)c12", "outcome": "active; positive"}, {"smiles": "[Li+]", "outcome": "inactive; negative"}, {"smiles": "O=[N+]([O-])c1ccc(O)c([N+](=O)[O-])c1", "outcome": "inactive; negative"}, {"smiles": "Cc1ccc2nc(-c3ccc(N)cc3)sc2c1S(=O)(=O)O", "outcome": "active; positive"}, {"smiles": "COC(=O)NC(=S)Nc1ccccc1NC(=S)NC(=O)OC", "outcome": "active; positive"}, {"smiles": "CCN(CC)CCCC(C)Nc1c2ccc(Cl)cc2nc2ccc(OC)cc12", "note": "(centres undefined)", "outcome": "active; positive"}, {"smiles": "Nc1ccc(NCCO)c([N+](=O)[O-])c1", "outcome": "active; positive"}, {"smiles": "CCCCCCCCCC=CCC1CC(=O)OC1=O", "note": "(centres undefined)", "outcome": "inactive; negative"}, {"smiles": "CCCCCCCCc1ccc(Nc2ccc(CCCCCCCC)cc2)cc1", "outcome": "inactive; negative"}, {"smiles": "CCN(C=O)CC", "outcome": "inactive; negative"}, {"smiles": "c1ccc(OP(Oc2ccccc2)Oc2ccccc2)cc1", "outcome": "inactive; negative"}, {"smiles": "CCOC(=O)CC", "outcome": "inactive; negative"}, {"smiles": "NCCCNCCCN", "outcome": "inactive; negative"}, {"smiles": "c1ccc2[nH]cnc2c1", "outcome": "inactive; negative"}, {"smiles": "CC1=CC[C@H]2C(C)=CC[C@@H](C(C)C)[C@@H]2C1", "outcome": "inactive; negative"}, {"smiles": "c1ccc(N=Nc2ccccc2)cc1", "outcome": "active; positive"}, {"smiles": "C1COCCO1", "outcome": "inactive; negative"}, {"smiles": "CCCCCN", "outcome": "inactive; negative"}, {"smiles": "COc1c(C(C)(C)C)cc([N+](=O)[O-])c(C)c1[N+](=O)[O-]", "outcome": "inactive; negative"}, {"smiles": "CCCCOc1ccc(C=Nc2ccc(CC)cc2)cc1", "outcome": "active; weakly positive"}, {"smiles": "Nc1ccc(Cc2ccc(N)cc2)cc1", "outcome": "active; positive"}, {"smiles": "OCCN1CN(CCO)CN(CCO)C1", "outcome": "active; positive"}, {"smiles": "OCC(O)CCl", "note": "(centres undefined)", "outcome": "active; positive"}, {"smiles": "C=CCOC(=O)c1ccccc1C(=O)OCC=C", "outcome": "inactive; negative"}, {"smiles": "ClC1(Cl)C2(Cl)C3(Cl)C4(Cl)C(Cl)(Cl)C5(Cl)C3(Cl)C1(Cl)C5(Cl)C24Cl", "note": "(centres undefined)", "outcome": "inactive; negative"}, {"smiles": "CC(=O)Nc1ccc(C)cc1", "outcome": "active; weakly positive"}, {"smiles": "Nc1ccc(S(=O)(=O)c2ccc(N)cc2)cc1", "outcome": "inactive; negative"}, {"smiles": "CC(=O)CC(=O)N(C)C", "outcome": "inactive; negative"}, {"smiles": "CCCCCCCCC1CO1", "note": "(centres undefined)", "outcome": "inactive; negative"}, {"smiles": "CC[C@H]1OC(=O)[C@H](C)[C@@H](O[C@H]2C[C@@](C)(OC)[C@@H](O)[C@H](C)O2)[C@H](C)[C@@H](O[C@@H]2O[C@H](C)C[C@H](N(C)C)[C@H]2O)[C@](C)(O)C[C@@H](C)C(=O)[C@H](C)[C@@H](O)[C@]1(C)O", "outcome": "inactive; negative"}, {"smiles": "C=CCCCC", "outcome": "inactive; negative"}, {"smiles": "O=C(O)/C=C/C(=O)O", "outcome": "inactive; negative"}, {"smiles": "O=C1OC(=O)c2cc([N+](=O)[O-])ccc21", "outcome": "active; positive"}, {"smiles": "CC(CC(=O)O)C(=O)O", "note": "(centres undefined)", "outcome": "inactive; negative"}, {"smiles": "O=c1c2ccc3c4c(ccc(c24)c2nc4ccccc4n12)c(=O)n1c2ccccc2nc31", "outcome": "active; positive"}, {"smiles": "ClC1=C(Cl)[C@]2(Cl)[C@@H]3[C@@H]4C[C@@H]([C@H]5O[C@@H]45)[C@@H]3[C@@]1(Cl)C2(Cl)Cl", "outcome": "inactive; negative"}, {"smiles": "CCCCC(CC)COC(=O)c1cccc(C(=O)OCC(CC)CCCC)c1", "note": "(centres undefined)", "outcome": "inactive; negative"}, {"smiles": "CCCN(CCC)c1c([N+](=O)[O-])cc(C(F)(F)F)cc1[N+](=O)[O-]", "outcome": "active; positive"}, {"smiles": "ClC(Cl)Cl", "outcome": "inactive; negative"}, {"smiles": "CC(=O)CC(C)C", "outcome": "inactive; negative"}, {"smiles": "C[C@H](CCC(=O)O)[C@H]1CC[C@H]2[C@@H]3CC[C@@H]4C[C@H](O)CC[C@]4(C)[C@H]3CC[C@]12C", "outcome": "inactive; negative"}, {"smiles": "O=C(O)CCC(=O)OC[C@@H](NC(=O)C(Cl)Cl)[C@H](O)c1ccc([N+](=O)[O-])cc1", "outcome": "inactive; negative"}, {"smiles": "Cc1ccc2ccccc2c1", "outcome": "inactive; negative"}, {"smiles": "CC(C)(C)OO", "outcome": "active; positive"}, {"smiles": "CCCCOC(=O)c1ccc(N)cc1", "outcome": "inactive; negative"}, {"smiles": "N[C@@H](Cc1ccc(N(CCCl)CCCl)cc1)C(=O)O", "outcome": "active; positive"}, {"smiles": "Nc1ccc(N=Nc2ccc(-c3ccc(N=Nc4c(S(=O)(=O)O)cc5cc(S(=O)(=O)O)c(N=Nc6ccccc6)c(O)c5c4N)cc3)cc2)c(N)c1", "outcome": "active; positive"}, {"smiles": "O=[N+]([O-])c1c(Cl)c(Cl)cc(Cl)c1Cl", "outcome": "active; weakly positive"}, {"smiles": "COCCOCCOCCOC", "outcome": "active; positive"}, {"smiles": "CN(C)C(=S)SSC(=S)N(C)C", "outcome": "active; positive"}, {"smiles": "Clc1nc(Cl)nc(Nc2ccccc2Cl)n1", "outcome": "inactive; negative"}, {"smiles": "[CH3][Hg+]", "outcome": "inactive; negative"}, {"smiles": "CCCC[N+](=O)[O-]", "outcome": "inactive; negative"}, {"smiles": "CCCCCO", "outcome": "inactive; negative"}, {"smiles": "Cl[C@@H]1C2(Cl)C3C4[C@@H]5O[C@@H]5[C@H]5C3[C@@](Cl)(C2(Cl)Cl)[C@]1(Cl)[C@@H]45", "note": "(some centres undefined)", "outcome": "active; positive"}, {"smiles": "C=Cc1ccccc1Cl", "outcome": "inactive; negative"}, {"smiles": "C=C1C/C(=C/C)C(=O)O[C@@H]2CCN3CC=C(COC(=O)[C@]1(C)O)[C@H]23", "outcome": "active; positive"}, {"smiles": "NNC(N)=S", "outcome": "inactive; negative"}, {"smiles": "C=C(C)C(=O)OCCCCCCCCCC", "outcome": "inactive; negative"}, {"smiles": "COc1ccc([N+](=O)[O-])cc1N", "outcome": "active; positive"}, {"smiles": "NC1CCCCC1", "outcome": "inactive; negative"}, {"smiles": "O=C(O)c1c(Cl)cccc1Cl", "outcome": "inactive; negative"}, {"smiles": "CCNc1cc(O)ccc1C", "outcome": "active; positive"}, {"smiles": "Cc1cccc([N+](=O)[O-])c1C", "outcome": "active; positive"}, {"smiles": "C[N+](C)(C)CCO", "outcome": "inactive; negative"}, {"smiles": "C=CC(=O)NCCNC(=O)C=C", "outcome": "active; positive"}, {"smiles": "COc1ccc(N=[N+]([O-])c2ccc(OC)cc2)cc1", "outcome": "active; positive"}, {"smiles": "COc1ccccc1C=CC=O", "outcome": "active; weakly positive"}, {"smiles": "CC(N)CN", "note": "(centres undefined)", "outcome": "inactive; negative"}, {"smiles": "ON=C1CCCCC1", "outcome": "active; positive"}, {"smiles": "Oc1ccc2ccccc2c1N=Nc1ccccc1", "outcome": "active; positive"}, {"smiles": "Oc1cccc(O)c1", "outcome": "inactive; negative"}, {"smiles": "O=C(Cl)c1ccccc1F", "outcome": "active; positive"}, {"smiles": "CC(C)CN", "outcome": "inactive; negative"}, {"smiles": "CCCCCCCCCCCCCCCCN", "outcome": "inactive; negative"}, {"smiles": "C=C(C)[C@@]12O[C@@]3(c4ccccc4)O[C@@H]1[C@@H]1[C@@H]4O[C@]4(CO)[C@@H](O)[C@]4(O)C(=O)C(C)=C[C@H]4[C@@]1(O3)[C@H](C)[C@H]2OC(=O)/C=C/C=C/c1ccccc1", "outcome": "inactive; negative"}, {"smiles": "NC1(C(=O)O)CCCC1", "outcome": "inactive; negative"}, {"smiles": "c1ccc(O[Si](Oc2ccccc2)(Oc2ccccc2)Oc2ccccc2)cc1", "outcome": "inactive; negative"}, {"smiles": "O=C(O)c1cc(O)c2c(c1)[C@@H]([C@H]1c3cc(C(=O)O)cc(O)c3C(=O)c3c(O[C@@H]4O[C@H](CO)[C@@H](O)[C@H](O)[C@H]4O)cccc31)c1cccc(O[C@@H]3O[C@H](CO)[C@@H](O)[C@H](O)[C@H]3O)c1C2=O", "outcome": "inactive; negative"}, {"smiles": "Cc1ccc(C(C)(C)C)cc1", "outcome": "inactive; negative"}, {"smiles": "ONc1ccccc1", "outcome": "active; positive"}, {"smiles": "O=C(O)c1ccccc1[N+](=O)[O-]", "outcome": "active; positive"}, {"smiles": "CCCC=NO", "outcome": "active; weakly positive"}, {"smiles": "C=C1C/C(=C/C)C(=O)O[C@@H]2CCN3CC=C(COC(=O)[C@@]1(O)CO)[C@H]23", "outcome": "active; positive"}, {"smiles": "O=C1c2ccccc2-c2ccc3c4c(ccc1c24)-c1ccccc1C3=O", "outcome": "inactive; negative"}, {"smiles": "O=NN(CCO)CCO", "outcome": "active; positive"}, {"smiles": "CCCCCCCCCCCCCC(=O)[O-].CCCCCCCCCCCCCC(=O)[O-].[Zn+2]", "outcome": "inactive; negative"}, {"smiles": "C=C(C)OC(C)=O", "outcome": "inactive; negative"}, {"smiles": "COc1ccc(C=O)cc1OC", "outcome": "inactive; negative"}]}]}
